Molecular target: T1, LXRβ (Homo sapiens, UniProt P55055)
T1 construct: Co-transfection expression plasmids, comprising full-length LXRα (pCMX-h LXRα or LXRβ (pCMX-hLXRβ)); expressed in transfected cells; host or cells: CV-1 African green monkey kidney cells, transient transfection with pCMX-hLXRβ
T1 sequence (P55055 1-460): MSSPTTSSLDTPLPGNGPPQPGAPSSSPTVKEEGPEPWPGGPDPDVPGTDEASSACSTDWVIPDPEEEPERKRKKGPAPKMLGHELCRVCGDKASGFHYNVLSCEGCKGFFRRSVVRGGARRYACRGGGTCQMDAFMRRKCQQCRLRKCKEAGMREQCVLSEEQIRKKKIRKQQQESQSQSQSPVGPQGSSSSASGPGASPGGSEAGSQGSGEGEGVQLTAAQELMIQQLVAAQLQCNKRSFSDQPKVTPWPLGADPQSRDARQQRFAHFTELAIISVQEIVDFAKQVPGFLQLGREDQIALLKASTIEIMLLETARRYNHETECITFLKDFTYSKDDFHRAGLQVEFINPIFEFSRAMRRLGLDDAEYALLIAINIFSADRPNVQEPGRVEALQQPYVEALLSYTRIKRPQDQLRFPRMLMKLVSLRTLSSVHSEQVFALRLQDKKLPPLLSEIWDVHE
T1 sequence (P19793 1-462 partner): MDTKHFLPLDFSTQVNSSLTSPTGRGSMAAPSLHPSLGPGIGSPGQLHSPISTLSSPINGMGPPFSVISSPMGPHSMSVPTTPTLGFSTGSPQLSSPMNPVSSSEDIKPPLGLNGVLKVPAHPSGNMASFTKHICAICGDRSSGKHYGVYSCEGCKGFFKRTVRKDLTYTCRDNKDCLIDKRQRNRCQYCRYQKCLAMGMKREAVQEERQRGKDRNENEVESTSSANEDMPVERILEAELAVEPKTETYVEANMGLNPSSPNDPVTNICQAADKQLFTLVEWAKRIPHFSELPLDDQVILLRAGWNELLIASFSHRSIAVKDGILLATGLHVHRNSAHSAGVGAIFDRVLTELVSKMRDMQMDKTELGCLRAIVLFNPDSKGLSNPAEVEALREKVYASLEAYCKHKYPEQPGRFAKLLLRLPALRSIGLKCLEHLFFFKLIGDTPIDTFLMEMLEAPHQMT
Assay: LXR/LXRE co-transfection assay (luciferase reporter) in CV-1 cells, LXRβ
Type: cell-based
Details: for EC50: CV-1 cells transfected with pCMX-hLXRβ and LXREx1-Tk-Luciferase, 20 hours incubation, read-out: LXRbeta agonism EC50; for Emax: CV-1 cells, relative to maximum response of high control N-(3-((4-fluorophenyl)-(naphthalene-2-sulfonyl)amino)propyl)-2,2-dimethylpropionamide, read-out: LXRbeta % EFFICACY
Method in brief: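 Luciferase read-out after 20 h compound treatment at 37 °C of CV-1 cells carrying transfected hLXRβ plus one-copy LXRE reporter, endogenous RXR partnering. Sigmoidal fit of 10-point half-log curves (4 wells each) gave EC50; % efficacy versus maximal response of the propionamide reference agonist.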

| Compound | EC50 [nM] | Emax [%] |
| --- | --- | --- |
| Cc1nc(-c2ccc(OC(F)(F)F)cc2)c(-c2cc(-c3cccc(S(C)(=O)=O)c3)ccc2-n2cc(Cl)c(C(C)(C)O)n2)o1 [Example 441, 2-(4-chloro-1-(3-(2-methyl-4-(4-(trifluoromethoxy)phenyl)oxazol-5-yl)-3′-(methylsulfonyl)-[1,1′-biphenyl]-4-yl)-1H-pyrazol-3-yl) propan-2-ol] | 176 | 31 |
| Cc1nc(-c2ccc(OC(F)(F)F)cc2)c(-c2cc(-c3cccc(S(C)(=O)=O)c3)ccc2-n2ccc(C(C)(F)F)n2)o1 [Example 442, 5-(4-(3-(1,1-difluoroethyl)-1H-pyrazol-1-yl)-3′-(methylsulfonyl)-[1,1′-biphenyl]-3-yl)-2-methyl-4-(4-(trifluoromethoxy)phenyl)oxazole] | 52 | 60 |
| Cc1nc(-c2ccc(OC(F)(F)F)cc2)c(-c2cc(-c3cc(F)c(CO)c(S(C)(=O)=O)c3)ccc2-n2cc(Cl)c(C(C)(C)O)n2)o1 [Example 443] | 22 | 35 |
| CNS(=O)(=O)c1cccc(-c2ccc(-n3cc(Cl)c(C(F)(F)F)n3)c(-c3oc(C)nc3-c3ccc(OC(F)(F)F)cc3)c2)c1 [Example 444, 4′-(4-chloro-3-(trifluoromethyl)-1H-pyrazol-1-yl)-N-methyl-3′-(2-methyl-4-(4-(trifluoromethoxy)phenyl)oxazol-5-yl)-[1,1′-biphenyl]-3-sulfonamide] | 76 | 63 |
| CNS(=O)(=O)c1cccc(-c2ccc(-n3cc(Cl)c(C(F)(F)F)n3)c(-c3oc(C)nc3-c3cnc(OC)nc3)c2)c1 [Example 445, 4′-(4-chloro-3-(trifluoromethyl)-1H-pyrazol-1-yl)-3′-(4-(2-methoxypyrimidin-5-yl)-2-methyloxazol-5-yl)-N-methyl-[1,1′-biphenyl]-3-sulfonamide] | 170 | 63 |
| Cc1nc(-c2ccc(OC(F)(F)F)cc2)c(-c2cc(-c3cc(F)c(CO)c(S(C)(=O)=O)c3)ccc2-n2cc(C#N)c(C3CC3)n2)o1 [Example 446, 3-cyclopropyl-1-(3′-fluoro-4′-(hydroxymethyl)-3-(2-methyl-4-(4-(trifluoromethoxy)phenyl)oxazol-5-yl)-5′-(methylsulfonyl)-[1,1′-biphenyl]-4-yl)-1H-pyrazole-4-carbonitrile] | 30 | 28 |
| Cc1nc(-c2ccc(OC(F)(F)F)cc2)c(-c2cc(-c3cccc(S(C)(=O)=O)c3)ccc2-n2cc(C#N)c(C3CC3)n2)o1 [Example 447, 3-cyclopropyl-1-(3-(2-methyl-4-(4-(trifluoromethoxy)phenyl)oxazol-5-yl)-3′-(methylsulfonyl)-[1,1′-biphenyl]-4-yl)-1H-pyrazole-4-carbonitrile] | 116 | 28 |
| Cc1nc(-c2ccc(OC(F)(F)F)cc2)c(-c2cc(-c3cc(F)c(CO)c(S(C)(=O)=O)c3)ccc2-n2cc(C(N)=O)c(C3CC3)n2)o1 [Example 448, 3-cyclopropyl-1-(3′-fluoro-4′-(hydroxymethyl)-3-(2-methyl-4-(4-(trifluoromethoxy)phenyl)oxazol-5-yl)-5′-(methylsulfonyl)-[1,1′-biphenyl]-4-yl)-1H-pyrazole-4-carboxamide] | 279 | 30 |

— patent US9751869B2, “LXR modulators” (BRISTOL-MYERS SQUIBB COMPANY, priority 2013, dated 2017)
